Results from PubChem BioAssay (NCI).
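Assay format: 96-well plates, 48-hour exposure. TGI: total growth inhibition.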

Key:
Assay in all cases: NCI-60 cell line screen, 48 h
[1] = test system: OVCAR-4 ovarian
[2] = test system: TK-10 renal
[3] = test system: KM12 colon
[4] = test system: SNB-75 CNS
[5] = test system: MDA-N
[6] = test system: IGROV1 ovarian
[7] = test system: OVCAR-5 ovarian
[8] = test system: 786-0 renal
[9] = test system: K-562 leukemia
[10] = test system: NCI/ADR-RES ovarian
[11] = test system: MOLT-4 leukemia
[12] = test system: UO-31 renal
[13] = test system: UACC-62 melanoma
[14] = test system: CCRF-CEM leukemia
[15] = test system: HL-60(TB) leukemia
[16] = test system: HS 578T breast
[17] = test system: ACHN renal
[18] = test system: PC-3 prostate
[19] = test system: SNB-19 CNS
[20] = test system: CAKI-1 renal
[21] = test system: MCF7 breast
[22] = test system: HOP-62 NSCLC
[23] = test system: SK-MEL-2 melanoma
[24] = test system: HCT-15 colon
[25] = test system: NCI-H522 lung
[26] = test system: SF-539 CNS
[27] = test system: HOP-92 NSCLC
[28] = test system: EKVX NSCLC
[29] = test system: SW-620 colon
[30] = test system: LOX IMVI melanoma
[31] = test system: A498 renal
[32] = test system: NCI-H226 lung
[33] = test system: OVCAR-3 ovarian
[34] = test system: BT-549 breast
[35] = test system: OVCAR-8 ovarian
[36] = test system: MDA-MB-231 breast
[37] = test system: U251 CNS
[38] = test system: UACC-257 melanoma
[39] = test system: HCT-116 colon
[40] = test system: SK-MEL-28 melanoma
[41] = test system: SF-295 CNS
[42] = test system: MDA-MB-435
[43] = test system: NCI-H460 lung
[44] = test system: SK-MEL-5 melanoma
[45] = test system: SN12C renal
[46] = test system: SK-OV-3 ovarian
[47] = test system: A549 NSCLC
[48] = test system: RXF 393 renal
[49] = test system: DU-145 prostate
[50] = test system: RPMI-8226 leukemia
[51] = test system: HCC-2998 colon
[52] = test system: COLO 205 colon
[53] = test system: HT29 colon
[54] = test system: SF-268 CNS
[55] = test system: M14 melanoma
[56] = test system: MALME-3M melanoma
[57] = test system: SR leukemia
[58] = test system: NCI-H23 lung

## Cc1c(C#N)c2ccccc2c2nc3ccccc3n12
[1]
  TGI: > 100 µM
[2]
  TGI: > 100 µM
[3]
  TGI: > 100 µM
[4]
  TGI: > 100 µM
[5]
  TGI: > 100 µM
[6]
  TGI: > 100 µM
[7]
  TGI: > 100 µM
[8]
  TGI: > 100 µM
[9]
  TGI: > 100 µM
[10]
  TGI: > 100 µM
[11]
  TGI: > 100 µM
[12]
  TGI: > 100 µM
[13]
  TGI: > 100 µM
[14]
  TGI: > 100 µM
[15]
  TGI: > 100 µM
[16]
  TGI: > 100 µM
[17]
  TGI: > 100 µM
[18]
  TGI: > 100 µM
[19]
  TGI: > 100 µM
[20]
  TGI: > 100 µM
[21]
  TGI: > 100 µM
[22]
  TGI: > 100 µM
[23]
  TGI: > 100 µM
[24]
  TGI: > 100 µM
[25]
  TGI: > 100 µM
[26]
  TGI: > 100 µM
[27]
  TGI: > 100 µM
[28]
  TGI: > 100 µM
[29]
  TGI: > 100 µM
[30]
  TGI: > 100 µM
[31]
  TGI: > 100 µM
[32]
  TGI: > 100 µM
[33]
  TGI: > 100 µM
[34]
  TGI: > 100 µM
[35]
  TGI: > 100 µM
[36]
  TGI: 86.9 µM
[37]
  TGI: > 100 µM
[38]
  TGI: > 100 µM
[39]
  TGI: > 100 µM
[40]
  TGI: > 100 µM
[41]
  TGI: > 100 µM
[42]
  TGI: > 100 µM
[43]
  TGI: > 100 µM
[44]
  TGI: 36.5 µM
[45]
  TGI: > 100 µM
[46]
  TGI: > 100 µM
[47]
  TGI: > 100 µM
[48]
  TGI: > 100 µM
[49]
  TGI: > 100 µM
[50]
  TGI: > 100 µM
[51]
  TGI: > 100 µM

## Nc1ccc(-c2cssc2=S)cc1
[1]
  TGI: > 100 µM
[52]
  TGI: > 100 µM
[2]
  TGI: > 100 µM
[3]
  TGI: > 100 µM
[5]
  TGI: > 100 µM
[6]
  TGI: > 100 µM
[7]
  TGI: > 100 µM
[8]
  TGI: > 100 µM
[9]
  TGI: > 100 µM
[10]
  TGI: > 100 µM
[11]
  TGI: > 100 µM
[12]
  TGI: > 100 µM
[53]
  TGI: > 100 µM
[13]
  TGI: 94.9 µM
[15]
  TGI: 62.5 µM
[16]
  TGI: > 100 µM
[17]
  TGI: > 100 µM
[18]
  TGI: > 100 µM
[19]
  TGI: > 100 µM
[20]
  TGI: > 100 µM
[21]
  TGI: > 100 µM
[22]
  TGI: > 100 µM
[23]
  TGI: 77 µM
[24]
  TGI: > 100 µM
[25]
  TGI: > 100 µM
[26]
  TGI: > 100 µM
[27]
  TGI: > 100 µM
[54]
  TGI: > 100 µM
[28]
  TGI: > 100 µM
[29]
  TGI: > 100 µM
[30]
  TGI: > 100 µM
[32]
  TGI: > 100 µM
[34]
  TGI: > 100 µM
[35]
  TGI: > 100 µM
[36]
  TGI: > 100 µM
[37]
  TGI: > 100 µM
[38]
  TGI: > 100 µM
[39]
  TGI: > 100 µM
[40]
  TGI: > 100 µM
[41]
  TGI: > 100 µM
[55]
  TGI: > 100 µM
[56]
  TGI: > 100 µM
[42]
  TGI: > 100 µM
[43]
  TGI: > 100 µM
[44]
  TGI: > 100 µM
[45]
  TGI: 94.6 µM
[46]
  TGI: > 100 µM
[47]
  TGI: > 100 µM
[48]
  TGI: > 100 µM
[50]
  TGI: 5.65 µM
[51]
  TGI: > 100 µM

## CC1(C)/C(=N\O)C2(C#N)CCC1C2 (stereo not drawn)
[1]
  TGI: > 100 µM
[2]
  TGI: > 100 µM
[3]
  TGI: > 100 µM
[4]
  TGI: > 100 µM
[5]
  TGI: > 100 µM
[9]
  TGI: > 100 µM
[10]
  TGI: > 100 µM
[11]
  TGI: > 100 µM
[12]
  TGI: > 100 µM
[13]
  TGI: > 100 µM
[14]
  TGI: > 100 µM
[15]
  TGI: > 100 µM
[17]
  TGI: > 100 µM
[19]
  TGI: > 100 µM
[20]
  TGI: > 100 µM
[24]
  TGI: > 100 µM
[57]
  TGI: > 100 µM
[27]
  TGI: > 100 µM
[54]
  TGI: > 100 µM
[29]
  TGI: > 100 µM
[58]
  TGI: > 100 µM
[31]
  TGI: > 100 µM
[32]
  TGI: > 100 µM
[34]
  TGI: > 100 µM
[35]
  TGI: > 100 µM
[36]
  TGI: > 100 µM
[37]
  TGI: > 100 µM
[38]
  TGI: > 100 µM
[40]
  TGI: > 100 µM
[42]
  TGI: > 100 µM
[43]
  TGI: > 100 µM
[45]
  TGI: > 100 µM
[50]
  TGI: > 100 µM
[51]
  TGI: > 100 µM

## CC1(C)C2CCC(CN)(C2)C1O (stereo not drawn)
[1]
  TGI: > 100 µM
[2]
  TGI: > 100 µM
[3]
  TGI: > 100 µM
[4]
  TGI: > 100 µM
[5]
  TGI: > 100 µM
[9]
  TGI: > 100 µM
[10]
  TGI: > 100 µM
[11]
  TGI: > 100 µM
[12]
  TGI: > 100 µM
[13]
  TGI: > 100 µM
[14]
  TGI: > 100 µM
[15]
  TGI: > 100 µM
[17]
  TGI: > 100 µM
[19]
  TGI: > 100 µM
[20]
  TGI: > 100 µM
[24]
  TGI: > 100 µM
[57]
  TGI: > 100 µM
[27]
  TGI: > 100 µM
[54]
  TGI: > 100 µM
[28]
  TGI: > 100 µM
[29]
  TGI: > 100 µM
[58]
  TGI: > 100 µM
[31]
  TGI: > 100 µM
[32]
  TGI: > 100 µM
[34]
  TGI: > 100 µM
[35]
  TGI: > 100 µM
[36]
  TGI: > 100 µM
[37]
  TGI: > 100 µM
[38]
  TGI: > 100 µM
[40]
  TGI: > 100 µM
[42]
  TGI: > 100 µM
[43]
  TGI: > 100 µM
[45]
  TGI: > 100 µM
[50]
  TGI: > 100 µM
[51]
  TGI: > 100 µM

## C/C=C1/CN2CCc3c([nH]c4ccccc34)[C@@H]2C[C@@H]1Cc1[nH]ccc2c1[nH]c1cc(=O)ccc12
[1]
  TGI: 3.73 µM
[52]
  TGI: > 100 µM
[2]
  TGI: 4.33 µM
[4]
  TGI: 3.36 µM
[5]
  TGI: 4.51 µM
[7]
  TGI: 8.64 µM
[8]
  TGI: 3.19 µM
[9]
  TGI: > 100 µM
[10]
  TGI: 3.49 µM
[11]
  TGI: > 100 µM
[12]
  TGI: 2.94 µM
[13]
  TGI: 3.62 µM
[14]
  TGI: > 100 µM
[16]
  TGI: 4.15 µM
[17]
  TGI: > 100 µM
[18]
  TGI: 6.88 µM
[19]
  TGI: > 100 µM
[20]
  TGI: 3.8 µM
[24]
  TGI: 10.6 µM
[57]
  TGI: > 100 µM
[27]
  TGI: 37.6 µM
[54]
  TGI: 3.33 µM
[28]
  TGI: 4.05 µM
[29]
  TGI: > 100 µM
[58]
  TGI: 3.34 µM
[31]
  TGI: 4.94 µM
[32]
  TGI: > 100 µM
[33]
  TGI: 5.15 µM
[34]
  TGI: 31.4 µM
[35]
  TGI: 3.17 µM
[40]
  TGI: 4.5 µM
[55]
  TGI: 4.78 µM
[42]
  TGI: 3.45 µM
[43]
  TGI: 64.4 µM
[45]
  TGI: 3.17 µM
[46]
  TGI: 4.4 µM
[49]
  TGI: 4.26 µM
